Test results reported in article PMC6609541, “Enterohepatic circulation of glucuronide metabolites of drugs in dog” (Pharmacology Research & Perspectives, 2019).
Where “and” joins values, the source holds several entries; their conditions need not be identical. Equal values may be shown once. Read-outs that look alike come from different tables or passages of the source.

Legend:
[1] = Plasma pharmacokinetics after single intravenous administration in bile duct cannulated (BDC) and intact beagle dogs; format: in vivo, beagle dog; conditions: for EHC / AUC(0-inf) / half-life / clearance / AUC / Vd: dog; for EHC: enterohepatic circulation; for AUC(0-inf) / half-life / clearance / AUC / Vd: male, beagle, plasma, iv; for clearance: plasma clearance; for AUC: mean ± SD n=4, read-out: AUC0‐48 hr
Protocol: Male beagle dogs were obtained from Charles River Laboratories Inc (Wilmington, MA). Pharmacokinetic (PK) studies in intact dogs were conducted at Covance (Greenfield, IN), while bile duct cannulation surgery and PK studies were conducted in these dogs at Covance (Madison, WI). Dogs (weight: 9‐12 kg), were acclimated prior to study initiation according to Standard Operating Procedures (Covance). All intravenous compound administration was by an intravenous catheter implanted in the cephalic vein. Access to food and water was allowed ad libitum. All animal procedures were approved by the Institutional Animal Care and Use Committee at Covance. Replacement bile was not administered during the study since collection of bile was scheduled for a period of 48 hours, replacement is typically administered for studies lasting more than 60 hours.
Canagliflozin and DPTQ, both at 0.5 mg/kg, were administered intravenously in 25 mmol/L phosphate buffer (pH 8) containing 10% dimethylacetamide (v/v), 15% ethanol (v/v) via a cephalic vein. Total volume administered was 1 mL/kg. Dogs were housed in stainless steel metabolic cages during the study. Serial blood samples were collected from the jugular vein at 0.08, 0.25, 0.5, 1, 2, 4, 8, 12, 24, 36 and 48‐hours post‐dose with collection tubes containing anticoagulant K3‐EDTA. Plasma was obtained by centrifugation at 1600g for 10 minutes. Cumulative urine samples were collected between 0‐12, 12‐24, 24‐36 and 36‐48 hours and feces were collected between 0‐24 and 24‐48 hours in both intact and BDC dogs. Bile samples were collected between 0‐12, 12‐24, 24‐36, 36‐48 hours in BDC dogs. The weights of all samples except blood and plasma were recorded. All the samples were stored at −70°C until analysis by liquid chromatography tandem‐mass spectrometry (LC‐MS/MS) was performed.
Noncompartmental pharmacokinetic parameters were calculated using Watson version 7.4 (Thermo Scientific, Waltham, MA). Statistical significance of differences for pharmacokinetic parameters between two groups was examined with Student's t test using Sigmaplot 12.5 (Systat Software Inc, San Jose, CA).
Canagliflozin and DPTQ in plasma, bile, urine and feces were quantified using LC‐MS/MS. All samples plasma, urine and bile) were mixed with an organic internal standard solution essentially described previously,15 to precipitate protein and centrifuged, and the resulting supernatants were analyzed using AB Sciex API 4000 quadrupole mass spectrometer (Applied Biosystems, Foster City, CA) equipped with a TurboIonSpray interface. The feces samples were homogenized in MeOH:H2O (1:1) and shaken vigorously to obtain slurry. The homogenates then went through the sample extraction along with other matrices. The blank plasma, urine, bile and feces was spiked with internal standard for calibration curve. The pumps were Shimadzu LC‐10AD units with a SCL‐10A controller (Kyoto, Japan), and a Z‐215 liquid handler (Gilson, Middleton, WI) was used as the autosampler. All compounds were chromatographically separated using a Betasil javelin C18 20 × 2.1‐mm 5‐μm HPLC column (Thermo Fisher Scientific, Waltham, MA). The mobile phase consisted of solvent A (1 mmol/L ammonium bicarbonate in water) and solvent B (1 mmol/L ammonium bicarbonate in methanol). Drugs and metabolites were detected in positive ion mode, using selected ion mode: canagliflozin 462.2 → 191.1 m/z, DPTQ 436.2 → 158.9 m/z, and DPTQ‐O‐glucuronide 612.2 → 418.1.

[2] = test system: cryopreserved human hepatocytes; assay: Hepatocyte metabolite profile with and without ABT (human); format: in vitro ADME; conditions: 4 h, 2 μmol/L
Protocol: Cryopreserved dog and human hepatocytes were obtained from BioreclamationIVT (Baltimore, MD). […] A stock solution of canagliflozin and DTPQ was added to medium to give a final incubation concentration of 2 μmol/L. The incubations including the media and cells were quenched after 4 hours with an equal volume of acetonitrile containing 200 ng/mL niflumic acid as internal standard. Samples were centrifuged at 3500 g for 10 minutes and the supernatant was analyzed by liquid chromatography coupled to a diode array UV detection and mass spectrometry system consisting of the Acquity ultra‐performance liquid chromatography column, Synapt G2‐S mass spectrometer, and an ultra‐performance liquid chromatography photodiode array detector (Waters, Milford, MA). The chromatographic separation of metabolites was achieved on a Waters 1.7‐μm Acquity BEH C18 (100 × 2.1 mm) column maintained at 60°C. The mobile phase consisted of solvent A (0.2% formic acid in water for DPTQ and 10 mmol/L ammonium acetate in water for canagliflozin) and solvent B (100% acetonitrile). The samples were eluted, at a flow rate of 0.5 mL/min with a gradient for 5 minutes. The LC/MS full scan data were processed by Metabolynx (Waters, Milford, MA) to identify metabolites. Product ion spectra were acquired to confirm the metabolites. The mass spectrometer was operated in positive ion mode with an electrospray ionization source. The parameters for the chamber were: capillary 1.0 kV, sample cone 50 V, source temperature 120°C, desolvation 500°C, and collision energy 25 V. The peak areas for parent, metabolite and internal standard were integrated to allow for comparison between conditions.

[3] = Hepatocyte intrinsic clearance with and without ABT (dog); format: in vitro ADME; conditions: cryopreserved dog hepatocytes, dog hepatocytes, 0.3 µmol/L compound
Protocol: (§1) The intrinsic clearance was determined in cryopreserved dog and human hepatocytes essentially as described previously.4 The assay incubation contained 0.3 µmol/L compound and hepatocytes at a concentration of 10^6 cells/mL, with and without 30 minutes pre‐incubation of 1 mmol/L ABT. Intrinsic clearance measurement was initiated by the addition of compound and the incubation quenched at 0.6, 15, 30, 60 and 90 minutes for DPTQ, and at 0.6, 15, 30, 60, 120 and 240 minutes by addition of acetonitrile with 0.1% formic acid. Samples were centrifuged at 3500 g for 10 minutes and the supernatant was analyzed to quantify parent compound loss and the intrinsic clearance values (μL/min/10^6 cells) were calculated using following equation for incubations with and without ABT. CLint=-kdep×incubation volume/10^6cells
(§2) In which the depletion rate constant (k dep) is the slope determined using linear regression from the log transformed percentage remaining on the y‐axis vs time on the x‐axis (min^− ^1). The fraction of metabolism (fm) by P450 was determined by the measurement of the percentage of inhibition of Clint by ABT.

[4] = test system: cryopreserved dog hepatocytes; assay: as above; format: in vitro ADME; conditions: for percentage of the metabolism not inhibited by ABT / % of inhibition by ABT: dog hepatocytes; for % of inhibition by ABT: inhibition of Clint by 1 mmol/L ABT (fm by P450); for Hepatic fm by UGT: dog, in hepatocytes
Protocol: as §1, §2

[5] = 0.5 mg/kg, BDC dog, 0.5 mg/kg IV bolus
[6] = 0.5 mg/kg, BDC dog, 0.5 mg/kg IV bolus, read-out: V dss
[7] = 0.5 mg/kg, intact dog, 0.5 mg/kg IV bolus
[8] = with 1 mmol/L ABT, 30 minutes pre-incubation, 1 mmol/L ABT pre‐incubation 30 minutes, read-out: Clint with ABT
[9] = 10^6 cells/mL, read-out: Clint without ABT

| Structure (SMILES) | EHC [1] | AUC(0-inf) [1, 5] | half-life [1, 5] | clearance [1, 5] | AUC [1, 5] | Vd [1, 6] | AUC [1, 7] | Peak area (+ABT) [2] | Peak area (‐ABT) [2] | hepatocyte CLint at 0.3 µmol/L [3, 8] | hepatocyte CLint at 0.3 µmol/L [3, 9] | percentage of the metabolism not inhibited by ABT [4] | % of inhibition by ABT [4] | Hepatic fm by UGT [4] | other results |
| --- | --- | --- | --- | --- | --- | --- | --- | --- | --- | --- | --- | --- | --- | --- | --- |
| Cc1ccc([C@@H]2O[C@H](CO)[C@@H](O)[C@H](O)[C@H]2O)cc1Cc1ccc(-c2ccc(F)cc2)s1 [Canagliflozin] | No | 16.4 ± 5.9 µM·h | 654 ± 108 min | 1.32 ± 0.5 mL/min/kg | 15.7 ± 5.4 µM·h | 0.87 ± 0.28 L/kg | 20.7 ± 3.7 µM·h | 2019 | 3414 | 6 ± 3.3 µL/min/1e6 cells | 6.5 ± 3.6 µL/min/1e6 cells | 87.3% | 12.7 ± 14.1% | Low (Low 0%‐30%) | AUC(0-inf) [1, 7]: 21.2 ± 3.9 µM·h; half-life [1, 7]: 483 ± 37.2 min; clearance [1, 7]: 0.93 ± 0.18 mL/min/kg; Vd ([1]; 0.5 mg/kg, intact dog, 0.5 mg/kg IV bolus, read-out: V dss): 0.72 ± 0.13 L/kg; % of inhibition by ABT ([4]; listed as canagliflozin): 12.7% |
| C[C@H]1c2cccc(CC(C)(C)O)c2C[C@H](CO)N1C(=O)Cc1c(Cl)cccc1Cl [DPTQ, 2‐(2,6‐dichlorophenyl)‐1‐((1S,3R)‐5‐(2‐hydroxy‐2‐methylpropyl)‐3‐(hydroxymethyl)‐1‐methyl‐3,4‐dihydroisoquinolin‐2(1H)‐yl)ethan‐1‐one] | Yes | 5.89 ± 3.3 µM·h | 150 ± 138 min | 4.43 ± 3.1 mL/min/kg | 5.89 ± 3.3 µM·h | 0.33 ± 0.07 L/kg | 7.94 ± 2.5 µM·h | 2364 | 2810 | 18.3 ± 5.9 µL/min/1e6 cells | 38.6 ± 8.5 µL/min/1e6 cells | 53.5% | 46.5% and 46.5 ± 6.6% | Moderate (moderate 30%‐70%) | CL0‐48 h ([1]; intact dog, 0.5 mg/kg IV bolus, AUCinf not extrapolated, CL from AUC0‐48 hours, 0.5 mg/kg): 2.73 mL/min/kg and 2.73 ± 1.2 mL/min/kg; Vd ([1]; 0.5 mg/kg, intact dog, 0.5 mg/kg IV bolus, AUCinf not extrapolated, read-out: V dss 0‐48 hr): 1.48 ± 0.25 L/kg |
